From ChEMBL document CHEMBL1145498, “A systematic interaction map of validated kinase inhibitors with Ser/Thr kinases” (Proc Natl Acad Sci U S A, 2007)

Legend:
[1] = molecular target: Serine/threonine-protein kinase 10 (Homo sapiens) (UniProt O94804)
[2] = molecular target: Tyrosine-protein kinase JAK1 (Homo sapiens) (UniProt P23458)
[3] = molecular target: 5'-AMP-activated protein kinase catalytic subunit alpha-2 (Homo sapiens) (UniProt P54646)
[4] = molecular target: Calcium/calmodulin-dependent protein kinase type 1D (Homo sapiens) (UniProt Q8IU85)
[5] = molecular target: T1, Dual specificity mitogen-activated protein kinase kinase 6 (Homo sapiens) (UniProt P52564)
T1 sequence (whole entry): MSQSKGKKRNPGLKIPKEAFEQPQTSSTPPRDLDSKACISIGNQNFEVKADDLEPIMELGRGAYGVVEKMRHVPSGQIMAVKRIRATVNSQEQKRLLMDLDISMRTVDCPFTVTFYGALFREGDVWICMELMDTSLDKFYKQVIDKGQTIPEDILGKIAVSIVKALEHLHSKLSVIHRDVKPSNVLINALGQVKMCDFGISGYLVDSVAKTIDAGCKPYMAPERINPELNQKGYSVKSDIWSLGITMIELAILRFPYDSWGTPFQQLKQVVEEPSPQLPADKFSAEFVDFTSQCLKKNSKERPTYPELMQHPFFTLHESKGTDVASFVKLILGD

[6] = molecular target: Mitogen-activated protein kinase 11 (Homo sapiens, UniProt Q15759)
[7] = molecular target: Calcium/calmodulin-dependent protein kinase type II subunit alpha (Homo sapiens) (UniProt Q9UQM7)
[8] = molecular target: Death-associated protein kinase 3 (Homo sapiens) (UniProt O43293)
[9] = molecular target: Serine/threonine-protein kinase RIO2 (Homo sapiens) (UniProt Q9BVS4)
[10] = molecular target: T2, Myotonin-protein kinase (Homo sapiens) (UniProt Q09013)
T2 sequence (whole entry): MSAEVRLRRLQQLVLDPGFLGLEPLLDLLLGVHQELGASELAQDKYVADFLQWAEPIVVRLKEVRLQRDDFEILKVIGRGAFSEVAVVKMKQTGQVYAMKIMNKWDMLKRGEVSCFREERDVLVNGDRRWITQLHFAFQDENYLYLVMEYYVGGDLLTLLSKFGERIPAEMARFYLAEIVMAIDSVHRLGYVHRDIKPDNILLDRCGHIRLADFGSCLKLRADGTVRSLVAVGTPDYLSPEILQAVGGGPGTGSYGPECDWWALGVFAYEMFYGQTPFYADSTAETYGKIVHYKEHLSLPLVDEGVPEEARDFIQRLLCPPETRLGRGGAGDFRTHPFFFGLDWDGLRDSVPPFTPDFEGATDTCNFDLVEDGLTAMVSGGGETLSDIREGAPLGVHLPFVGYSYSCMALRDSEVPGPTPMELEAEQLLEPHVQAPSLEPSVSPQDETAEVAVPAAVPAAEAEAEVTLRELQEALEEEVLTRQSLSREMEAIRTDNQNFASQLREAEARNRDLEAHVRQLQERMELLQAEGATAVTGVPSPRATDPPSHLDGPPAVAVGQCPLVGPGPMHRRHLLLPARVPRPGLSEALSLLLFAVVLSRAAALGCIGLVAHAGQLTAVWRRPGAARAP

[11] = molecular target: T3, Serine/threonine-protein kinase 17A (Homo sapiens) (UniProt Q9UEE5)
T3 sequence (whole entry): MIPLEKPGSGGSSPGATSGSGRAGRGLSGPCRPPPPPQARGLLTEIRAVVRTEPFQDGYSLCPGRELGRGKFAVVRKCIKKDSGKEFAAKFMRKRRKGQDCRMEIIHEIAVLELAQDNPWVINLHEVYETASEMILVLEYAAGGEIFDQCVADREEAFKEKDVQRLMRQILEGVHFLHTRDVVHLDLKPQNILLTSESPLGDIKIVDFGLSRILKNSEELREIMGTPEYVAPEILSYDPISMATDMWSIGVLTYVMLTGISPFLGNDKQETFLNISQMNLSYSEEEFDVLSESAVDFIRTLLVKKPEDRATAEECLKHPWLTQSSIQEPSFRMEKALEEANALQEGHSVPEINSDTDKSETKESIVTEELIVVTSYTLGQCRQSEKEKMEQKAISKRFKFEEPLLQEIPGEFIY

[12] = molecular target: Dual specificity mitogen-activated protein kinase kinase 2 (Homo sapiens, UniProt P36507)
[13] = molecular target: Serine/threonine-protein kinase pim-3 (Homo sapiens) (UniProt Q86V86)
[14] = molecular target: Serine/threonine-protein kinase 25 (Homo sapiens) (UniProt O00506)
[15] = molecular target: T4, Lymphokine-activated killer T-cell-originated protein kinase (Homo sapiens) (UniProt Q96KB5)
T4 sequence (whole entry): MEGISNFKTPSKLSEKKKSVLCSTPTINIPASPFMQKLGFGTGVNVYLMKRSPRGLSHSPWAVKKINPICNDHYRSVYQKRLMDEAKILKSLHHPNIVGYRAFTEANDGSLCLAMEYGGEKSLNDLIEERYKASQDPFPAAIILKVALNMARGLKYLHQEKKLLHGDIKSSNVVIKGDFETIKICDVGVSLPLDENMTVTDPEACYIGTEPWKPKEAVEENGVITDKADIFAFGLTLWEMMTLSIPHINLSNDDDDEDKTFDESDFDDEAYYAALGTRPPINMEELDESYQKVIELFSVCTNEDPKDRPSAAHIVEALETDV

[16] = molecular target: Glycogen synthase kinase-3 beta (Homo sapiens, UniProt P49841)
[17] = molecular target: Serine/threonine-protein kinase 26 (Homo sapiens) (UniProt Q9P289)
Sequence of Serine/threonine-protein kinase 26 (Homo sapiens) (Q9P289 2-416 limits assumed): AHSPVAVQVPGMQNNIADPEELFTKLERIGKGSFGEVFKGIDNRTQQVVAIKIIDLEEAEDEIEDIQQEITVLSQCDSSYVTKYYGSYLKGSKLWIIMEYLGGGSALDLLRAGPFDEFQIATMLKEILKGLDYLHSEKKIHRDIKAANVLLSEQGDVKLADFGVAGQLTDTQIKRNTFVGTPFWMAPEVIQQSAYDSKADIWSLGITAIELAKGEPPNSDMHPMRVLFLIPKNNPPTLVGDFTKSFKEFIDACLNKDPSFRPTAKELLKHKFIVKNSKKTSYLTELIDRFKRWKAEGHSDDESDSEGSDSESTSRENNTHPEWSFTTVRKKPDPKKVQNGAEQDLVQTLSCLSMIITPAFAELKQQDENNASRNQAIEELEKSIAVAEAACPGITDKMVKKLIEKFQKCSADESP

Sequence of Death-associated protein kinase 3 (Homo sapiens) (O43293 whole entry, looked up): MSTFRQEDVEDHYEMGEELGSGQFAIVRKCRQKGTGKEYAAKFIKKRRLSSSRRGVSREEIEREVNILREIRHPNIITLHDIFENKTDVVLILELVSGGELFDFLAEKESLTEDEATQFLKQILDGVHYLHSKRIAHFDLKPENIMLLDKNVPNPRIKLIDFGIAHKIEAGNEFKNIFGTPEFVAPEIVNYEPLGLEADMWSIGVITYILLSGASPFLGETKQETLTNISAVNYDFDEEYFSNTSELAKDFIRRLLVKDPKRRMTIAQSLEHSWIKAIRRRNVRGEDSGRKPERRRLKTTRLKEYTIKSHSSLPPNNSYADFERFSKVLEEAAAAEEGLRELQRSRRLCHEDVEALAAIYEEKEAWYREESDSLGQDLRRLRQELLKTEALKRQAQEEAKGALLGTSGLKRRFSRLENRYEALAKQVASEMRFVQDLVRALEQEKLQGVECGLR
Sequence of Tyrosine-protein kinase JAK1 (Homo sapiens) (P23458 whole entry): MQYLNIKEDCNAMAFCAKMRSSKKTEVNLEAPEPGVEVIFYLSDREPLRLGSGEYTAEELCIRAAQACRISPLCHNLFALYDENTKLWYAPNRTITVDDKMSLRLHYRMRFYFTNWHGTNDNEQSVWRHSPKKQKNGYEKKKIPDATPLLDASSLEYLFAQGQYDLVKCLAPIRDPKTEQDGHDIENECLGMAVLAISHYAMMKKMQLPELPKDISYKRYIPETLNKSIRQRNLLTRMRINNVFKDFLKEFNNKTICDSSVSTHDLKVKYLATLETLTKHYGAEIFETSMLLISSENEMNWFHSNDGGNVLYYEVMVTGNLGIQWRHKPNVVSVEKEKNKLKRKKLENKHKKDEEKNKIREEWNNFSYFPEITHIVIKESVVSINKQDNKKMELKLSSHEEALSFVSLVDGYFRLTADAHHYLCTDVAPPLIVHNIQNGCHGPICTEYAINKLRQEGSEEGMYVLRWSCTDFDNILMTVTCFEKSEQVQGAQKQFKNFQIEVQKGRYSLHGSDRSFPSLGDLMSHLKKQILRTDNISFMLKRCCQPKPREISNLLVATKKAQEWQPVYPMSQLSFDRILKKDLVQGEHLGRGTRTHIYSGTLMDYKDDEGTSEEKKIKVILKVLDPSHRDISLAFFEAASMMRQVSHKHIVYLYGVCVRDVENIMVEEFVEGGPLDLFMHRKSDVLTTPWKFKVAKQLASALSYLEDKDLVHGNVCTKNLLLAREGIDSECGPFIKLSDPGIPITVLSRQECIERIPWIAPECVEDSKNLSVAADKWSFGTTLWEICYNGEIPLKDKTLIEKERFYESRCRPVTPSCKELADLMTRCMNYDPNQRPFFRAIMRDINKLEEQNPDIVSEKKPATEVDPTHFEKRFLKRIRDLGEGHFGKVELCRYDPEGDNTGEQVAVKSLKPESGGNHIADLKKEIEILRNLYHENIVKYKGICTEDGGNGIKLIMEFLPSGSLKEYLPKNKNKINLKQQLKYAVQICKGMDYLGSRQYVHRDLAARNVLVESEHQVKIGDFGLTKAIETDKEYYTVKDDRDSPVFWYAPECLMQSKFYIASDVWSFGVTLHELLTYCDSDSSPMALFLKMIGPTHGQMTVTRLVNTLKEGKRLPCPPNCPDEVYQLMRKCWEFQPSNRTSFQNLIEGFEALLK
Sequence of Dual specificity mitogen-activated protein kinase kinase 2 (P36507 whole entry): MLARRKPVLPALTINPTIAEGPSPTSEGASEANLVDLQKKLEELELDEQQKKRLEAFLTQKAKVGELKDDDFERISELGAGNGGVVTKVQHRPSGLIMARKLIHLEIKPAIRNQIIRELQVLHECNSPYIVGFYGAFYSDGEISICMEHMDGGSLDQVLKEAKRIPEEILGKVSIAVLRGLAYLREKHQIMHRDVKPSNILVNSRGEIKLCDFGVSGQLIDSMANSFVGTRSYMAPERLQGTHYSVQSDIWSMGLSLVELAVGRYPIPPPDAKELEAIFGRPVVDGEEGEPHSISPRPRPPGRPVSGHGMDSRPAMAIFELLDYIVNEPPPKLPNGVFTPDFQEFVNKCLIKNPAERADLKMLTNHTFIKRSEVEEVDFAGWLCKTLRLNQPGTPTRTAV
Sequence of Calcium/calmodulin-dependent protein kinase type 1D (Homo sapiens) (Q8IU85 whole entry, looked up): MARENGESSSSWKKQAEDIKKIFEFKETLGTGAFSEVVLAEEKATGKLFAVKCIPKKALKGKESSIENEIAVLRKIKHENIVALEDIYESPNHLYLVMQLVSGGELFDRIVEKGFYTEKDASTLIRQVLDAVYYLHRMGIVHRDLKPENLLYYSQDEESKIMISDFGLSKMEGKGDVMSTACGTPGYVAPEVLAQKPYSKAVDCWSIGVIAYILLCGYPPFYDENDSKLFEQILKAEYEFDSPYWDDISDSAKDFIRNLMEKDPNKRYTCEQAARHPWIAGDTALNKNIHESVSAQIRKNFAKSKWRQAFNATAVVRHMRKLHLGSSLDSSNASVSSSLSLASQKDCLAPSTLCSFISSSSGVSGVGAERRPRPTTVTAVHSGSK
Sequence of Serine/threonine-protein kinase 25 (Homo sapiens) (O00506 whole entry, looked up): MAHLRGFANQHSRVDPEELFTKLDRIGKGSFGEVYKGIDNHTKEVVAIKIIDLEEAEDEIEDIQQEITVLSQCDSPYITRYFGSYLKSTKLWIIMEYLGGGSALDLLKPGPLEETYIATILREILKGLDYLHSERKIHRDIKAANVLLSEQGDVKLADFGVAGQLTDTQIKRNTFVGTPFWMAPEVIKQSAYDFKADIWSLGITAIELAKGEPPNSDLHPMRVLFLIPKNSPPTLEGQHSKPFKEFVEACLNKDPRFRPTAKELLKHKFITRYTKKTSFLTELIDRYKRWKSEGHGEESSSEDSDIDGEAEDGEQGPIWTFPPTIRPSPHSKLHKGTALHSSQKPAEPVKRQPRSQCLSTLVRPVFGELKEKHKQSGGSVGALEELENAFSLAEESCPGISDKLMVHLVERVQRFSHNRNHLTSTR
Sequence of Calcium/calmodulin-dependent protein kinase type II subunit alpha (Homo sapiens) (Q9UQM7 whole entry): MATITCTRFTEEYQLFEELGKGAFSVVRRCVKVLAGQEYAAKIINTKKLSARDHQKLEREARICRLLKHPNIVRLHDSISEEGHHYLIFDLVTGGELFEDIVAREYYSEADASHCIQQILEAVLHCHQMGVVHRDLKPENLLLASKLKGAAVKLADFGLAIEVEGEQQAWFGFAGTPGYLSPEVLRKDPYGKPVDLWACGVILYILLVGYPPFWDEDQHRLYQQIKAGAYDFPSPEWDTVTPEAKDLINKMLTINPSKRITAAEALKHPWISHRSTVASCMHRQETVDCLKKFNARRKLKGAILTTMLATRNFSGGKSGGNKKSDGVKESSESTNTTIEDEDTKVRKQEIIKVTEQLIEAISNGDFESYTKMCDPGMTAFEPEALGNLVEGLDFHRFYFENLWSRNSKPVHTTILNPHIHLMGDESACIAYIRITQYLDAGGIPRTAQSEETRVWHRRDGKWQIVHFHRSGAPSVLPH
Sequence of Glycogen synthase kinase-3 beta (P49841 whole entry, looked up): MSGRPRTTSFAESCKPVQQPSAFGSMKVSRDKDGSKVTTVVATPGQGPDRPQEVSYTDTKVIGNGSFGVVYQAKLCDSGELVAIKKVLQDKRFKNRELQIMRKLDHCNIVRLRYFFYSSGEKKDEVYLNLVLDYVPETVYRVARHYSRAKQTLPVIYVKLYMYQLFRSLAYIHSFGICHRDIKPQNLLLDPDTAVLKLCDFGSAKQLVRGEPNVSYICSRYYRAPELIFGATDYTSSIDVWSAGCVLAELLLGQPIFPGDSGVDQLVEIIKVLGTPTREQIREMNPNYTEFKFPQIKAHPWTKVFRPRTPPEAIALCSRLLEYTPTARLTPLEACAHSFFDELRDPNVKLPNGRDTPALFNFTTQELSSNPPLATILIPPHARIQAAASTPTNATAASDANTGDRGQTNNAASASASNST
Sequence of Mitogen-activated protein kinase 11 (Q15759 whole entry): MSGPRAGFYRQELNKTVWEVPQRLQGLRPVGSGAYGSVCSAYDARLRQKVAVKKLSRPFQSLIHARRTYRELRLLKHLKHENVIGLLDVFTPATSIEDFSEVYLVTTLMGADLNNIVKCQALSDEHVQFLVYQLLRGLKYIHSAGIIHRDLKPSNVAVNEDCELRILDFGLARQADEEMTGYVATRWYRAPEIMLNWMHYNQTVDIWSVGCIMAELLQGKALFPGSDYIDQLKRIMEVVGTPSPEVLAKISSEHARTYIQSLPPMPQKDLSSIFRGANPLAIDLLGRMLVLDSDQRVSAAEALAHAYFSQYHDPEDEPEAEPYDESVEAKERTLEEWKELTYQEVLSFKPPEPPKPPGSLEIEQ

SMILES | ΔTm [1] [°C] | ΔTm [2] [°C] | ΔTm [3] [°C] | ΔTm [4] [°C] | ΔTm [5] [°C] | ΔTm [6] [°C] | ΔTm [7] [°C] | ΔTm [8] [°C] | ΔTm [9] [°C] | ΔTm [10] [°C] | ΔTm [11] [°C] | ΔTm [12] [°C] | ΔTm [13] [°C] | ΔTm [14] [°C] | ΔTm [15] [°C] | ΔTm [16] [°C] | ΔTm [17] [°C]
OC[C@H]1O[C@@H](n2cnc3cc(Cl)c(Cl)cc32)[C@H](O)[C@@H]1O | -0.7 | 0 | -0.7 | 0 | 0.2 | 0 | 0.8 | 1.6 | 0.7 | 0.1 | 2.1 | -0.3 | 3.1 | 0 | 0.6 | 0.7 | -0.3
COc1cc2ncnc(Nc3cccc(Br)c3)c2cc1OC | 7.4 | 2.7 | -0.5 | 0.3 | 0.4 | 1.8 | 0.5 | 1.8 | 1.2 | 0.3 | 3.3 | 0.3 | 1.6 | 1.4 | 0.3 | 1.5 | 1.2
O=c1cc(N2CCOCC2)oc2c(-c3ccccc3)cccc12 | 0.8 | 0.6 | -0.9 | 0.3 | 0.4 | -0.3 | 0.5 | 1.4 | 1 | 0.4 | 1 | -0.3 | 2.8 | 0 | -0.5 | 1.1 | -0.3
O=c1sn(Cc2ccccc2)c(=S)n1Cc1ccccc1 | 0.9 | 2.3 | -0.9 | 0.1 | 0.1 | -0.3 | 0.3 | -0.2 | 0.1 | 0.5 | 0.2 | 0 | 0.3 | 0.5 | -0.4 | -1 | 0.4
Ic1cccc(CSc2nnc(-c3ccncc3)o2)c1 | 1.4 | -0.3 | -0.7 | -0.3 | 0.3 | -0.4 | -0.6 | 0.2 | 1.6 | -0.1 | 0.3 | -0.8 | 0.2 | -0.3 | 0.3 | 7.1 | -0.5
Cn1cc(C2=C(c3cn(CCCSC(=N)N)c4ccccc34)C(=O)NC2=O)c2ccccc21 | 7.5 | 0 | 2.1 | 2 | 0.9 | 2 | 4.2 | 1.5 | 3.1 | 7.1 | 4.3 | 0.9 | 7.7 | 3.9 | -0.1 | 12.8 | 2.3
CC(C)c1cc(/C=C(\C#N)C(=O)NCCCc2ccccc2)cc(C(C)C)c1O | -0.1 | 0.1 | -0.8 | 1.1 | 0.3 | 0.1 | 0.6 | 0.7 | -0.5 | 1 | 0.8 | 0.3 | 0.3 | 0.7 | -0.2 | -1.2 | 0.3
COC1=C2C[C@@H](C)C[C@H](OC)[C@H](O)[C@@H](C)/C=C(\C)[C@H](OC(N)=O)[C@@H](OC)/C=C\C=C(/C)C(=O)NC(=CC1=O)C2=O | 0.5 | -0.5 | 0.4 | 0.1 | 0 | -0.2 | -0.1 | -0.6 | -0.6 | -0.3 | 0.3 | -0.5 | 0.5 | -0.6 | 0.6 | 0.5 | -0.4
O=C(O)/C=C/c1cc(CO)ccc1CO | 0.5 | 0.8 | 0.7 | 0.1 | -0.2 | 0.3 | -0.1 | 0.8 | 0.4 | -0.1 | 0.6 | -0.1 | 2.2 | 0.5 | 0.8 | 0.1 | 0.4
Oc1cccc(-c2nc(N3CCOCC3)c3oc4ncccc4c3n2)c1 | -0.4 | 0.1 | -0.1 | 0.4 | 0 | 1 | -0.3 | 0 | -0.3 | -0.7 | 1.5 | 0.3 | 0.6 | -0.6 | 0.5 | 0.1 | 0.2
O=C1NC(=O)C(c2c[nH]c3ccccc23)=C1c1c[nH]c2ccccc12 | 6.2 | -0.5 | 1.2 | 0.6 | 1.1 | 0.5 | 3.3 | -0.2 | 0 | 3.8 | 2.9 | 2.8 | 6.3 | 2 | -0.2 | 7.8 | 0.9
Nc1ncnc2c1c(I)cn2[C@@H]1O[C@H](CO)[C@@H](O)[C@H]1O | 4.7 | 0.2 | 1 | 0.2 | 2.7 | -0.4 | 0.7 | 2.9 | 1.7 | -0.3 | 2.8 | 1.9 | 1.5 | 4.2 | 0 | 2 | 1.4
CC(C)n1cnc2c(NCc3ccccc3O)nc(NCCCO)nc21 | 0.5 | 0.8 | 0.2 | 0 | 0.1 | 0.1 | 0 | 0.2 | -0.1 | 0 | 0 | -0.2 | 0.4 | 0.3 | 0.7 | 0.3 | 0.4
